In patent US11427526B2, “Method of preparing hydroxytyrosol cinnamic acid ester with antioxidant and antibacterial activities” (XI'AN KANGYUANSHENG BIOMEDICAL TECHNOLOGY CO., LTD., priority 2020, dated 2022):
In brackets after ≈: the same amount, converted by molar mass.

Legend:
[1] = system: methicillin-resistant Straphylococcus aureus MRSA 18-222; assay: MIC by microbroth dilution, MRSA 18-222; assay type: cell-based; settings: for Minimum bacteriostatic concentration: strain MRSA 18-222
Protocol: (§1) The minimal inhibitory concentrations (MIC) of the compounds were determined by microbroth dilution method with gentamicin, cefazolin sodium and ceftriaxone sodium as positive control.
(§2) The experimental strains included methicillin-resistant Gram-positive bacteria: methicillin-resistant Straphylococcus aureus MRSA 18-222, 18-575; multiple drug-resistant Gram-negative bacteria: vancomycin-resistant Enterococci VRE 18-80, 18-94, multidrug-resistant Pseudomonas aeruginosa MDR-PA 18-1774, 18-202, carbapenem-resistant Acinetobacter baumannii CR-AB 18-183, 18-560. All the experimental strains were donated by Huashan Hospital affiliated to Fudan University (Institute of antibiotics, Fudan University) and used after routine identification.
(§3) Preparation of MHB medium: 20.0 g MHB medium was added to 1 L distilled water, boiled until completely dissolved, packed in conical bottles and sterilized at 121° C. for 15 min.
(§4) The experimental strain was cultured to the logarithmic growth phase: under aseptic condition, the experimental strain was inoculated into 100 mL MHB medium and incubated in a constant temperature and humidity incubator at 37° C. for 20-22 hours.
(§5) Preparation of storage solution: weighing the sample to be tested, dissolving it with 1% DMSO solution, preparing a storage solution with a concentration of 2560 μg/mL, weighing a positive reference substance, dissolving it with aseptic distilled water, and configuring a storage solution with a concentration of 2560 μg/mL.
(§6) Preparation of bacterial suspension: under aseptic condition, the experimental strains cultured to logarithmic growth phase were adjusted to 0.5 MCF turbidity standard with MHB medium and diluted according to 1:10, and the bacterial suspension with concentration of 10^6 CFU/mL was prepared for standby.
(§7) Dilution of storage solution and inoculation of experimental strain: under aseptic condition, the storage solution was diluted to 256 μg/mL solution. Taking a sterile 96-well plate, adding 200 μL MHB medium to the 12th well, and adding 100 μL MHB medium to each well. Adding 100 μL of positive control solution to the first well, mixing well, and taking 100 μL and discard. Adding 100 μL of the compound sample solution to the second well, mixing well, and then pipetting 100 μL to the third well. After mixing, pipetting 100 μL to the fourth well, and diluting to the 11th well in the same way. Finally, 100 μL was pipetted from the 11th well and discarded. The 12th hole was the growth control without drugs. The concentration of the positive reference substance was 128 μg/mL, the concentrations of the sample solution were 128, 64, […] respectively. Then, 100 μL of the prepared bacterial suspension was added to each well, so that the final concentration of the bacterial liquid in each well was 5×10^5 CFU/mL.
(§8) Incubation: Covering the 96-well plate inoculated with the experimental strains, and incubating in a constant temperature and humidity box at 37° C. for 20-22 hours.

[2] = system: carbapenem-resistant Acinetobacter baumannii CR-AB 18-183; assay: MIC by microbroth dilution, CR-AB 18-183; assay type: cell-based; settings: strain CR-AB 18-183
Protocol: as §1, §2, §3, §4, §5, §6, §7, §8

[3] = system: vancomycin-resistant Enterococci VRE 18-80; assay: MIC by microbroth dilution, VRE 18-80; assay type: cell-based; settings: strain VRE 18-80
Protocol: as §1, §2, §3, §4, §5, §6, §7, §8

[4] = system: multidrug-resistant Pseudomonas aeruginosa MDR-PA 18-202; assay: MIC by microbroth dilution, MDR-PA 18-202; assay type: cell-based; settings: strain MDR-PA 18-202
Protocol: as §1, §2, §3, §4, §5, §6, §7, §8

[5] = system: vancomycin-resistant Enterococci VRE 18-94; assay: MIC by microbroth dilution, VRE 18-94; assay type: cell-based; settings: strain VRE 18-94
Protocol: as §1, §2, §3, §4, §5, §6, §7, §8

[6] = system: multidrug-resistant Pseudomonas aeruginosa MDR-PA 18-174; assay: MIC by microbroth dilution, MDR-PA 18-174; assay type: cell-based; settings: for Minimum bacteriostatic concentration: strain MDR-PA 18-174
Protocol: as §1, §2, §3, §4, §5, §6, §7, §8

[7] = system: carbapenem-resistant Acinetobacter baumannii CR-AB 18-560; assay: MIC by microbroth dilution, CR-AB 18-560; assay type: cell-based; settings: strain CR-AB 18-560
Protocol: as §1, §2, §3, §4, §5, §6, §7, §8

[8] = system: methicillin-resistant Straphylococcus aureus MRSA 18-575; assay: MIC by microbroth dilution, MRSA 18-575; assay type: cell-based; settings: strain MRSA 18-575
Protocol: as §1, §2, §3, §4, §5, §6, §7, §8

[9] = DPPH radical scavenging activity assay; settings: for DPPH clearance rate: n = 3
Protocol: The antioxidant activity of the hydroxytyrosol cinnamic acid ester was measured by a DPPH radical scavenging activity assay. 2,2-Diphenyl-1-picryl hydrazyl (DPPH) is an organic compound composed of a stable organic radical. In the DPPH molecule, due to the presence of multiple electron-withdrawing —NO2 and large π bonds of the benzene ring, nitrogen free radical is stabilized. Its methanol solution is purple and has a maximum absorption peak at 517 nm. After the addition of an antioxidant, DPPH captures an electron to be paired with the free electron, and the purple fades and turns into a yellow substance. The absorption at 517 nm disappears, and the degree of fading is quantitatively related to the number of electrons it captures. Based on this principle, a spectrophotometer is used to detect the change of the absorbance of the DPPH radical and the sample solution, and the ability of the sample to provide hydrogen atoms and scavenge free radicals can be measured. measuring exact amount of 2,2-diphenyl-1-picryl hydrazyl (DPPH) and dissolving in toluene to prepare a 0.2 mmoL/L DPPH solution, stored at 0° C. in dark. Vc (positive control), hydroxytyrosol cinnamic acid ester (sample), hydroxytyrosol (control) and cinnamic acid (control). The sample solution was subjected to gradient dilution with toluene, and three sets of controls were separately dissolved in a test tube with a certain amount of toluene to prepare the same concentration gradient as the sample. Sample liquid absorbance measurement: Take 2 mL of sample solution (Table 1 Vc, B, C), add 2 mL of DPPH solution with concentration of 2×10^−4 moL/L, mix and react in the dark at room temperature for 30 min, adjust to zero with toluene, and measure at 517 nm. The absorbance Ai was simultaneously measured for the absorbance Aj of 2 mL of toluene mixed with 2 mL of the sample solution and the absorbance Ao of 2 mL of DPPH solution mixed with 2 mL of toluene (The experimental results are shown in Table 2). Clearance calculation: Clearance Rate (%)=[1−(Ai−Aj)/Ao]*100%

drug-resistant bacteria = assay: Antibacterial activity test, summary over all experimental strains; assay type: cell-based; settings: text summary of FIGS. 2-3 and Table 4
Protocol: as §1, §2, §3
The experimental strain was cultured to the logarithmic growth phase: under aseptic condition, the experimental strain was inoculated into 100 mL MHB medium and incubated in a constant temperature and humidity incubator at 37° C. for 20-22 hours. […]

Molecule	Minimum bacteriostatic concentration [1] [µg/mL]	Minimum bacteriostatic concentration [2] [µg/mL]	Minimum bacteriostatic concentration [3] [µg/mL]	Minimum bacteriostatic concentration [4] [µg/mL]	Minimum bacteriostatic concentration [5] [µg/mL]	Minimum bacteriostatic concentration [6] [µg/mL]	Minimum bacteriostatic concentration [7] [µg/mL]	Minimum bacteriostatic concentration [8] [µg/mL]	DPPH clearance rate ([9]; 1.76 ppm) [%]	DPPH clearance rate ([9]; 8.80 ppm) [%]	DPPH clearance rate ([9]; 21.12 ppm) [%]	DPPH clearance rate ([9]; 42.24 ppm) [%]	DPPH clearance rate ([9]; 79.20 ppm) [%]	DPPH clearance rate ([9]; 112.64 ppm) [%]	DPPH clearance rate ([9]; 281.60 ppm) [%]	DPPH clearance rate ([9]; 492.80 ppm) [%]	DPPH clearance rate ([9]; 792.00 ppm) [%]	DPPH clearance rate ([9]; 915.20 ppm) [%]	other results
Cc1nnc(SCC2=C(C(=O)O)N3C(=O)[C@@H](NC(=O)Cn4cnnn4)[C@H]3SC2)s1 [Cefazolin sodium]	>128	>128	32	128	>128	8	>128	>128											
CO/N=C(\C(=O)N[C@@H]1C(=O)N2C(C(=O)O)=C(CSc3nc(=O)c(=O)[nH]n3C)CS[C@H]12)c1csc(N)n1 [Ceftriaxone sodium]	>128	>128	8	16	>128	128	>128	>128											
O=C(O)C=Cc1ccccc1 [Cinnamic acid]	>128	>128	>128	>128	>128	>128	>128	>128	6.45	8.20	14.52	20.33	31.75	38.62	54.12	59.60	70.53	71.89	inhibitory effect on drug-resistant bacteria (drug-resistant bacteria): no inhibitory effect
O=C(/C=C\c1ccccc1)OCCc1ccc(O)c(O)c1 [Hydroxytyrosol cinnamic acid ester, (Z)-3,4-Dihydroxyphenethyl 3-Phenylacrylate]	32	>128	>128	>128	>128	64	>128	>128	0.56	16.52	31.75	43.52	55.11	68.53	76.22	80.95	84.32	85.03	MIC ([1]; Staphylococcus aureus, multi-drug resistant Straphylococcus aureus MRSA (text summary, strain number not given)): 32 µg/mL (≈ 113 µM); antioxidant activity [9]: excellent antioxidant activity; MIC ([6]; multi-drug resistant Pseudomonas aeruginosa MDR-PA (text summary, strain number not given)): 64 µg/mL (≈ 225 µM)
OCCc1ccc(O)c(O)c1 [Hydroxytyrosol]	>128	>128	>128	>128	>128	>128	>128	>128											inhibitory effect on drug-resistant bacteria (drug-resistant bacteria): no inhibitory effect
O=C1O[C@H]([C@@H](O)CO)C(O)=C1O [Vc]									23.16	33.47	79.63	89.55	97.42	97.53	98.29	99.06	99.10	99.28	
Gentamicin	128	>128	0.0625	0.0625	>128	0.0625	>128	2											
